Laboratory results as given in patent US7371888B2, “α-(Trifluoromethyl-substituted aryloxy, arylamino, arylthio or arylmethyl)-trifluoromethyl-substituted phenylacetic acids and derivatives as antidiabetic agents” (Metabolex, Inc., priority 2004, dated 2008).

Tested on: C57BL/6J ob/ob mice
Test: Anti-diabetic activity in the C57BL/6j ob/ob mice model (plasma glucose lowering, insulin level)
Assay type: in vivo
Conditions: male C57BL/6J ob/ob mice, orally by gavage once a day for 1-4 days; for minimal effective dose: Mus musculus, po, glucose lowering, plasma glucose 6 hours after each dose, read-out: Potency; for Insulin Level compared with vehicle: drug-treated vs vehicle-treated
Experimental: The anti-diabetic activities of the compounds were evaluated in the C57BL/6j ob/ob Mice model. Male, 7-9 weeks old, C57BL/6J ob/ob mice were purchased from The Jackson Laboratory (Bar Harbor, Me., USA). Animals were housed (4-5 mice/cage) under standard laboratory conditions at 22±3° C. temperature and 50±20% relative humidity, and were maintained on a diet of Purina rodent chow and water ad libitum. Prior to treatment, blood was collected from the tail vein of each animal. Mice that had non-fasting plasma glucose levels between 250 and 500 mg/dl were used. Each treatment group consisted of 8-10 mice that were distributed so that the mean glucose levels were equivalent in each group at the start of the study. Mice were dosed orally by gavage once a day for 1-4 days with vehicle and one or more dose of test compound at a dose ranging from 5 to 125 mg/kg. Compounds were delivered in a liquid formulation containing 5% (v/v) dimethyl sulfoxide (DMSO), 1% (v/v) Tween 80® and 0.9% (w/v) methylcellulose. The gavage volume was 10 ml/kg. Blood samples were taken at 6 hours after the each dose and analyzed for plasma glucose. Food intake and body weight were measured daily. Plasma glucose concentrations were determined calorimetrically using a commercial glucose oxidase method (Sigma Chemical Co, St. Louis, Mo., USA). Significant difference between groups (comparing drug-treated to vehicle-treated) was evaluated using the Student unpaired t-test. Table 1 provides the relative potency of some selected compounds of the invention.

Compound | minimal effective dose | Insulin Level compared with vehicle
OCC(Oc1ccc(C(F)(F)F)cc1Cl)c1ccc(C(F)(F)F)cc1 (centres unmarked) [Compound 128] | ≤ 125 mg/kg | Lower
O=C(O)C(Oc1ccc(C(F)(F)F)cn1)c1cccc(C(F)(F)F)c1 (centres unmarked) [Compound 100, (3-trifluoromethyl-phenyl)-(5-trifluoromethyl-pyridin-2-yloxy)-acetic acid] | ≤ 125 mg/kg | Lower
CC(=O)NCCOC(=O)C(Oc1ccc(C(F)(F)F)cc1)c1cccc(C(F)(F)F)c1 (centres unmarked) [Compound 136, (4-trifluoromethyl-phenoxy)-(3-trifluoromethyl-phenyl)-acetic acid 2-acetylamino-ethyl ester] | ≤ 125 mg/kg | Lower
O=C(O)C(Oc1cc(C(F)(F)F)cc(C(F)(F)F)c1)c1ccc(C(F)(F)F)cc1 (centres unmarked) [Compound 81] | ≤ 125 mg/kg | Lower
O=C(O)C(Oc1ccc(C(F)(F)F)cc1Cl)c1ccc(C(F)(F)F)cc1 (centres unmarked) [Compound 89, (2-Chloro-4-trifluoromethyl-phenoxy)-(4-trifluoromethyl-phenyl)-acetic acid] | ≤ 125 mg/kg | Lower
CC(Oc1ccc(C(F)(F)F)cc1)(C(=O)O)c1ccc(C(F)(F)F)cc1 (centres unmarked) [Compound 121, 2-(4-Trifluoromethyl-phenoxy)-2-(4-trifluoromethyl-phenyl)-propionic acid] | ≤ 125 mg/kg | Lower
O=C(O)C(Oc1ccc(C(F)(F)F)cc1Cl)c1cccc(C(F)(F)F)c1 (centres unmarked) [Compound 85, (2-Chloro-4-trifluoromethyl-phenoxy)-(3-trifluoromethyl-phenyl)-acetic acid] | ≤ 125 mg/kg | Lower
CC(=O)NCCOC(=O)C(Oc1ccc(C(F)(F)F)cc1)c1ccc(C(F)(F)F)cc1 (centres unmarked) [Compound 145] | ≤ 125 mg/kg | Lower
CC(Oc1ccc(C(F)(F)F)cc1)(C(=O)O)c1cccc(C(F)(F)F)c1 (centres unmarked) [Compound 120, 2-(4-trifluoromethyl-phenoxy)-2-(3-trifluoromethyl-phenyl)-propionic acid] | ≤ 125 mg/kg | Lower
O=C(O)C(Oc1ccc(C(F)(F)F)cc1)c1cccc(C(F)(F)F)c1 (centres unmarked) [Compound 39, (4-Trifluoromethyl-phenoxy)-(3-trifluoromethyl-phenyl)-acetic acid] | – | Lower
O=C(O)C(Oc1ccc(C(F)(F)F)cc1)c1ccc(C(F)(F)F)cc1 (centres unmarked) [Compound 83, (4-Trifluoromethyl-phenoxy)-(4-trifluoromethyl-phenyl)-acetic acid] | ≤ 125 mg/kg | Lower
CC(=O)NCCOC(=O)C(Oc1cccc(C(F)(F)F)c1)c1cccc(C(F)(F)F)c1 (centres unmarked) [Compound 144] | ≤ 125 mg/kg | Lower
CC(=O)NCCOC(=O)C(Oc1cc(C(F)(F)F)cc(C(F)(F)F)c1)c1ccc(C(F)(F)F)cc1 (centres unmarked) [Compound 143] | ≤ 125 mg/kg | Lower
O=C(O)C(Oc1ccc(C(F)(F)F)cc1)c1cccc(C(F)(F)F)c1 (single isomer, unassigned; (-)) [(−)-39, (4-trifluoromethyl-phenoxy)-(3-trifluoromethyl-phenyl)-acetic acid] | – | Lower
O=C(O)C(Oc1cccc(C(F)(F)F)c1)c1ccc(C(F)(F)F)cc1 (centres unmarked) [Compound 86, (3-trifluoromethyl-phenoxy)-(4-trifluoromethyl-phenyl)-acetic acid] | ≤ 125 mg/kg | Lower
O=C(O)C(Oc1ccc(C(F)(F)F)cc1)c1cccc(C(F)(F)F)c1 (single isomer, unassigned; (+)) [(+)-39, (4-trifluoromethyl-phenoxy)-(3-trifluoromethyl-phenyl)-acetic acid] | – | Lower
CC(=O)NCCOC(=O)C(Oc1cccc(C(F)(F)F)c1)c1ccccc1C(F)(F)F (centres unmarked) [Compound 147] | > 125 mg/kg | Lower
CC(=O)NCCOC(=O)C(Oc1ccccc1C(F)(F)F)c1ccc(C(F)(F)F)cc1 (centres unmarked) [Compound 146] | > 125 mg/kg | Lower
CC(=O)NCCOC(=O)C(Oc1cccc(C(F)(F)F)c1)c1ccc(C(F)(F)F)cc1 (centres unmarked) [Compound 142] | ≤ 125 mg/kg | Lower
